Earlier results as cited in patent US20110286960A1, “CANCER THERAPY BY DOCETAXEL AND GRANULOCYTE COLONY-STIMULATING FACTOR (G-CSF)” (OPTIMATA LTD., priority 2008, published 2011).
Like-named read-outs stand apart in the source and are kept apart here. One block for each molecule: values may come before it.

What was measured:
[1] = Baker et al., 2004, mean ± STD
neutrophils [2] = conditions: for nadir of neutrophil level: human, in vivo
neutrophils [3] = conditions: G-CSF treatment one day post-chemotherapy
[4] = docetaxel clinical trial results (17, 28)

AUC ([1]; 35 mg/m^2): 1320 ± 420 ng·h/mL
Clearance ([1]; 35 mg/m^2): 29.10 ± 10.20 L/h*m^2
Cmax ([1]; 35 mg/m^2): 1850 ± 730 ng/mL
Terminal half life ([1]; 35 mg/m^2): 15.60 ± 12.00 h
AUC ([1]; 100 mg/m^2): 5620 ± 2120 ng·h/mL
Clearance ([1]; 100 mg/m^2): 19.60 ± 5.60 L/h*m^2
Cmax ([1]; 100 mg/m^2): 4150 ± 1350 ng/mL
Terminal half life ([1]; 100 mg/m^2): 17.20 ± 6.20 h
patients suffering grade 3/4 neutropenia (neutrophils [2]; 14 patients, weekly docetaxel 40-45 mg/m^2, three consecutive weeks in cycles of four weeks (38)): Half
nadir recorded on days (neutrophils [2]; [4]): 6 to 10 days
recovery to baseline recorded on days (neutrophils [2]; [4]): 16 to 22 days
neutropenia (neutrophils [2]; docetaxel dose up to 145 mg/m^2, as reported in (36)): acceptable neutropenia
patients suffering grade 3/4 neutropenia (neutrophils [2]; patients receiving 30-35 mg/m2/week (38)): none
docetaxel clearance, CYP3A-affected clinically observed range: 5.4-29.1 Uhr/m^2
docetaxel clearance, observed range (CYP3A inter-individual variability (27)): 5.4-29.1 L/hr/m^2
Molecule: CC(=O)O[C@@]12CO[C@@H]1C[C@H](O)[C@@]1(C)C(=O)[C@H](O)C3=C(C)[C@@H](OC(=O)[C@H](O)[C@@H](NC(=O)OC(C)(C)C)c4ccccc4)C[C@@](O)([C@@H](OC(=O)c4ccccc4)[C@H]21)C3(C)C [Docetaxel]

nadir of neutrophil level (neutrophils [2]): 9 days
Molecule: CCc1c2c(nc3ccc(OC(=O)N4CCC(N5CCCCC5)CC4)cc13)-c1cc3c(c(=O)n1C2)COC(=O)[C@]3(O)CC [Irinotecan]

Molecule: CC[C@]12C=CCN3CC[C@@]4(c5cc([C@@]6(C(=O)OC)C[C@@H]7C[C@@H](C(C)(F)F)CN(Cc8c6[nH]c6ccccc86)C7)c(OC)cc5N(C)[C@H]4[C@@](O)(C(=O)OC)[C@@H]1OC(C)=O)[C@@H]32 [vinflunine]
nadir of neutrophil level (neutrophils [2]): 20 days

B1: G-CSF: Granulocyte Colony-Stimulating Factor, neutropenia alleviating support therapy (protein, UniProt P09919 31-207, looked up)
Granulocyte …: TPLGPASSLPQSFLLKCLEQVRKIQGDGAALQEKLVSECATYKLCHPEELVLLGHSLGIPWAPLSSCPSQALQLAGCLSQLHSGLFLYQGLLQALEGISPELGPTLDTLQLDVADFATTIWQQMEELGMAPALQPTQGAMPAFASAFQRRAGGVLVASHLQSFLEVSYRVLRHLAQP
grade 4 neutropenia reported (neutrophils [2]; G-CSF post-docetaxel, locally advanced breast cancer (10) or advanced NSCLC patients (11)): No grade 4 neutropenia
effect on neutropenia (neutrophils [3]): speeds up and aggravates neutropenia
